This data set is described as follows: Retention time of the compound treated with FU'U ODN by HPLC analysis. The format is physicochemical.

`O=c1[nH]c(=O)n([C@H]2C[C@H](O)[C@@H](CO)O2)cc1F` [FLOXURIDINE] had a Retention_time of 19 min.

For the origin of these results see ChEMBL document CHEMBL3351365, “Short oligonucleotide prodrug having 5-fluoro and 5-iodouracil inhibits the proliferation of cancer cells in a photo-responsive manner” (Bioorg Med Chem Lett, 2014).
